Source: the PolyMetriX glass transition set
± gives the standard deviation of the reports.

glass transition temperature [°C]	SMILES
300.00	*c1ccc(Oc2ccc(-c3nc4ccc(-c5ccc6nc(*)c(-c7ccccc7)c(-c7ccccc7)c6c5)cc4c(-c4ccccc4)c3-c3ccccc3)cc2)cc1 (repeat unit)
281.00	*c1ccc(C(=O)c2ccc(-n3nc(-c4ccc(Sc5ccc(-c6nn(*)c(=O)c7ccccc67)cc5)cc4)c4ccccc4c3=O)cc2)cc1 (repeat unit)
177.00	*Oc1ccc(NC(=O)c2ccc(Oc3ccc(C(C)(C)c4ccc(C(C)(C)c5ccc(Oc6ccc(C(=O)Nc7ccc(Oc8ccc(-c9ccc(*)cc9)cc8)cc7)cc6)cc5)cc4)cc3)cc2)cc1 (repeat unit)
36.00	*CCCCCCCCNC(=O)CCCCCCCCCCCCCCCCC(=O)N* (repeat unit)
151.00	*Oc1ccc(S(=O)c2ccc(Oc3ccc(/C=N/N=C/c4ccc(*)cc4)cc3)cc2)cc1 (repeat unit)
270.00	*c1ccc(Oc2ccc(N3C(=O)c4cccc(Oc5c(C)cc(Cc6cc(C)c(Oc7cccc8c7C(=O)N(*)C8=O)c(C)c6)cc5C)c4C3=O)cc2)cc1 (repeat unit)
157.00	*c1ccc(S(=O)(=O)c2ccc(N3C(=O)C(C)C(SCCOCCSC4C(=O)N(c5ccc(S(=O)(=O)c6ccc(N7C(=O)CC(C)(SCCOCCSC8(C)CC(=O)N(*)C8=O)C7=O)cc6)cc5)C(=O)C4C)C3=O)cc2)cc1 (repeat unit)
338.00	*C(=O)Nc1ccc(-c2sc(-c3ccc(NC(=O)c4ccc5c(c4)C(=O)N(c4ccc(-c6sc(-c7ccc(N8C(=O)c9ccc(*)cc9C8=O)cc7)c(-c7ccccc7)c6-c6ccccc6)cc4)C5=O)cc3)c(-c3ccccc3)c2-c2ccccc2)cc1 (repeat unit)
56.00	*CC(CO*)(CS(=O)(=O)CCCCC)CS(=O)(=O)CCCCC (repeat unit)
285.00	*Nc1ccc(Br)cc1-c1ccc(NC(=O)c2ccc(C(*)=O)cc2)cc1 (repeat unit)
167.50	*CC(O)COc1ccc(S(=O)(=O)c2ccc(O*)cc2)cc1 (repeat unit)
391.50	*c1ccc(-c2nc3cc(-c4ccc5nc(*)c(-c6ccccc6)nc5c4)ccc3nc2-c2ccccc2)cc1 (repeat unit)
303.00	*C(=O)Nc1ccc(Oc2ccc(Oc3ccc(NC(=O)c4ccc5c(c4)C(=O)N(c4ccc(-c6sc(-c7ccc(N8C(=O)c9ccc(*)cc9C8=O)cc7)c(-c7ccccc7)c6-c6ccccc6)cc4)C5=O)cc3)cc2)cc1 (repeat unit)
199.50	*Nc1ccc(NC(=O)c2ccc(NC(=O)CCCCCCCCCCCCC(=O)Nc3ccc(C(*)=O)cc3)cc2)cc1C(=O)OCCCCCCCCCCCC (repeat unit)
-41.50	*CCOCCOC(=O)CCCCCC(=O)O* (repeat unit)
208.00	*c1ccc(OCCCCCOc2ccc(N3C(=O)c4ccc(-c5cccc6c5C(=O)N(*)C6=O)cc4C3=O)cc2)cc1 (repeat unit)
24.00	*CCC1CC(OC(=O)CCCCCCCCCCOc2ccc(-c3ccc(C#N)cc3)cc2)CC1* (repeat unit)
115.00	*CC(O)COc1ccc(C(C)(c2ccccc2)c2ccc(O*)cc2)cc1 (repeat unit)
41.00	*Oc1ccc(OC2(F)C(*)(F)C(F)(F)C2(F)F)cc1 (repeat unit)
198.00	*c1ccc(C(=O)c2cccc(C(=O)c3ccc(S(*)(=O)=O)cc3)c2)cc1 (repeat unit)
12.00	*CC(*)(C)C(=O)OCCCCCCCCCCCCOc1ccc2cc(C(=O)Oc3ccccc3)ccc2c1 (repeat unit)
75.00	*CC(*)(C)C(=O)OC(C(F)(F)F)C(F)(F)F (repeat unit)
189.00	*c1ccc(Cc2ccc(N3C(=O)C(Cl)=C(Oc4ccc(C(c5ccc(OC6=C(Cl)C(=O)N(*)C6=O)cc5)(C(F)(F)F)C(F)(F)F)cc4)C3=O)cc2)cc1 (repeat unit)
-39.00	*CC(*)C(=O)OCC(F)(F)C(F)(F)C(F)(F)C(F)(F)C(F)(F)F (repeat unit)
135.00	*C(F)(F)C1(*)OC(F)(F)C(F)(C(F)(F)F)O1 (repeat unit)
16.00	*CC(*)(C)C(=O)OCCCCCCOc1ccc(OC(=O)c2ccc(OCCCCCC)cc2)cc1 (repeat unit)
222.00	*c1ccc(Oc2cc3ccccc3cc2Oc2ccc(N3C(=O)c4ccc(Oc5cc6ccccc6cc5Oc5ccc6c(c5)C(=O)N(*)C6=O)cc4C3=O)cc2)cc1 (repeat unit)

glass transition temperature [°C]	SMILES
175.00	*/C=C/c1c(OC(=O)c2ccc(C(=O)Oc3cccc4ccc(*)nc34)cc2)ccc2ccccc12 (repeat unit)
101.00	*Oc1ccc(Oc2ccc(/C=N/CC/N=C/c3ccc(*)cc3)cc2)cc1 (repeat unit)
120.00	*Oc1ccc(Oc2c(F)c(F)c(-c3c(F)c(F)c(*)c(F)c3F)c(F)c2F)cc1S(=O)(=O)O (repeat unit)
93.80	*Cc1ccccc1[Si](*)(C)c1ccccc1 (repeat unit)
62.00	*O[Si](C)(C)c1cccc2c([Si](*)(C)C)cccc12 (repeat unit)
331.00	*C(=O)c1ccc2c(c1)C(=O)N(c1ccc3c(c1)C(=O)c1cc(N4C(=O)c5ccc(*)cc5C4=O)ccc1-3)C2=O (repeat unit)
54.2	*CC(*)C(=O)OCCCOc1ccc(-c2ccc(C#N)cc2)cc1 (repeat unit)
308.00	*c1c(C)cc(-c2cc(C)c(N3C(=O)c4ccc(Oc5cc6ccccc6cc5Oc5ccc6c(c5)C(=O)N(*)C6=O)cc4C3=O)c(C)c2)cc1C (repeat unit)
55.00	*CCCCCCCNC(=O)CCCCC(=O)N* (repeat unit)
60.00	*CCCCCOC(=O)c1ccc(/C=C/c2ccc(C(=O)O*)cc2)cc1 (repeat unit)
240.00	*NNC(=O)c1ccc(C(*)=O)cc1OCC (repeat unit)
63.00	*CCCC(C)(C)CNC(=O)CCCCCCCC(=O)N* (repeat unit)
87.00	*Nc1ccc(*)cc1OCCCCCCCCCCCC (repeat unit)
250.00	*Nc1ccc(/C=C/c2ccc(NC(=C(C#N)C#N)c3ccc(C(*)=C(C#N)C#N)cc3)cc2)cc1 (repeat unit)
73.00	*CC(*)(C)C(=O)OCc1ccc2c(c1)c1ccccc1n2CCCCCC (repeat unit)
30.00	*O[Si](*)(C)OCCCCCCCCCCCOc1ccc(C2COC(c3ccc(OCC(C)CC)cc3)OC2)cc1 (repeat unit)
25.00	*CCCN(*)C(=O)C(F)(F)C(F)(F)C(F)(F)C(F)(F)C(F)(F)C(F)(F)C(F)(F)F (repeat unit)
135.00	*CC(O)COc1ccc(C(C)(C)C2CCC(C)(c3ccc(O*)cc3)CC2)cc1 (repeat unit)
-78.00	*O[Si](*)(C)CCCCC(=O)OCCCCCCCCCCC(F)(F)C(F)(F)C(F)(F)C(F)(F)C(F)(F)C(F)(F)C(F)(F)C(F)(F)F (repeat unit)
176.00	*Oc1ccc(C(c2ccc(OC(*)=O)cc2)(C(F)(F)F)C(F)(F)F)cc1 (repeat unit)
77.00	*/C=C/C1CC(*)C(F)(F)C1(F)OC(F)(F)C(F)(F)C(F)(F)F (repeat unit)
46.50	*CCCCCCCCCCCCNC(=O)CCCCCCCCCCCCCCCCC(=O)N* (repeat unit)
47.50	*CCC[Si](*)(c1cccc2ccccc12)C1CCCCC1 (repeat unit)
302.00	*C(=O)c1ccc2c(c1)C(=O)N(c1ccc(Cc3ccc(Cc4ccc(Cc5ccc(N6C(=O)c7ccc(*)cc7C6=O)cc5)cc4)cc3)cc1)C2=O (repeat unit)
268.50	*c1ccc(Oc2ccc(-c3ccc4nc(Oc5cc(-c6ccccc6)c6cc(*)ccc6n5)cc(-c5ccccc5)c4c3)cc2)cc1 (repeat unit)
167.00	*Oc1ccc(S(=O)(=O)c2ccc(Oc3ccc(C(C)(C)c4ccc(*)c(C(O)(C(F)(F)F)C(F)(F)F)c4)cc3C(O)(C(F)(F)F)C(F)(F)F)cc2)cc1 (repeat unit)

SMILES	glass transition temperature [°C]
*CC(OC)C(C(=O)O)C(*)C(=O)O (repeat unit)	144.00
*CC(*)NC(=O)OC(C)(C)C (repeat unit)	120.00
*Oc1cccc(OC(=O)CCC(*)=O)c1 (repeat unit)	38.20
*Oc1ccc(C(C)(C)c2ccc(Oc3ccc(C(=O)c4ccc(P(=O)(c5ccccc5)c5ccc(C(=O)c6ccc(*)cc6)cc5)cc4)cc3)cc2)cc1 (repeat unit)	195.00
*CC(*)CC(C)(C)C (repeat unit)	190.00
*CC(*)c1cccc2ccccc12 (repeat unit)	160.00
*CC(*)(C)C(=O)OCC(F)(F)F (repeat unit) [Poly(2,2,2-trifluoroethyl methacrylate)]	74.42 ± 0.8
*c1cccc(P(=O)(c2ccc(C(F)(F)F)cc2)c2cccc(N3C(=O)c4ccc(Oc5ccc6c(c5)C(=O)N(*)C6=O)cc4C3=O)c2)c1 (repeat unit)	248.00
*Nc1ccc(C(c2ccc(NC(=O)c3ccc4cc(C(*)=O)ccc4c3)cc2)(P2(=O)Oc3ccccc3-c3ccccc32)P2(=O)Oc3ccccc3-c3ccccc32)cc1 (repeat unit)	241.00
*CC(*)C(=O)OCCN(C)C (repeat unit)	-39.00
*CCCCCCNC(=O)CC(=O)N* (repeat unit)	50.00
*CC(*)c1ccc(CCC)cc1 (repeat unit)	46.8
*CCC[Si](*)(C)C[Si](C)(C)C (repeat unit)	-51.00
*CCCCOc1ccc(C(=O)Nc2cccc(P(=O)(c3ccccc3)c3cccc(NC(=O)c4ccc(O*)cc4)c3)c2)cc1 (repeat unit)	191.00
*CCOCCOC(=O)C(C)C(=O)O* (repeat unit)	-29.00
